According to patent publication US20030133918A1, “Methods for ex vivo propagation of somatic stem cells” (priority 2001, published 2003):

Legend:
[1] = system: Rat liver epithelial cells; assay: Clonal derivation of rat liver epithelial cells by limiting dilution in 96-well plates; assay type: cell-based
Description: Using xanthosine (Xs) as a pharmacological agent to switch tissue stem cells from their default asymmetric cell kinetics program to exponential kinetics, we attempted to derive clonal rat liver epithelial stem cell lines that retained the ability to divide with asymmetric cell kinetics when Xs was removed. Rat liver epithelial cells found in the low-speed supernatant of centrifuged cells from in situ collagenase-perfused livers were clonally-derived by limiting dilution in 96-well plates in the absence or presence of added Xs (200 μM or 400 μM). Colonies with epithelial cell morphology arose with similar efficiency under both conditions (4.1±0.31 percent for both 480 Xs− wells and 960 Xs+ wells). The efficiency of establishing cell strains from these initial colonies was also similar, 50% (3/6) for colonies expanded in Xs-free medium and 65% (11/17) for colonies derived in Xs-containing medium. Each type of cell strain has now been maintained continuously in culture for >80 cell doublings. Early passage cells were cryo-preserved in liquid nitrogen and can be re-established in culture after thawing.

[2] = system: adherent cells from long-term bone marrow cultures; assay: Soft agar colony formation by adherent cells from long-term bone marrow cultures; assay type: cell-based, mice; conditions: adherent cells from cultures with 0.4 to 1.0 mM Xs
Description: Because of the difficulties anticipated in cloning Xs-dependent cells from heterogenous long-term bone marrow cultures, we decided to adopt a soft agar culture strategy. It is well known that hematopoietic progenitor cells will form colonies when grown in semi-solid medium (Dexter et al., 1984). […] Instead, it simply reflects their natural ability to divide without anchorage. In many bone marrow cell studies, conditions are selected to induce bone marrow cell differentiation. Methyl-cellulose or soft agar supplemented with lineage-promoting growth factors are widely used experimental systems (Dexter et al., 1984). For ideal SACK, we wished to minimize stimuli for differentiation. Therefore, we used agar developed in routine horse serum-supplemented long-term culture medium, without any additional growth factor source, as the gel medium for our studies. We followed procedures developed for detecting anchorage-independent growth of transformed tumor cells.
Our plan was to evaluate SACK effects on soft agar colonies derived from fresh bone marrow. Therefore, we wished to relate the morphology of colonies that arose from fresh bone marrow cells to those that arose from LT-CFCs in long-term cultures. […] After 9 weeks of culture, when adherent cells were evaluated after washing and then removal with half-strength trypsin, only type II colonies were detected (frequency=19×10^−5). […]

With O=c1[nH]c(=O)c2ncn([C@@H]3O[C@H](CO)[C@@H](O)[C@H]3O)c2[nH]1 [Xs, xanthosine] the “Efficiency with which colonies with epithelial cell morphology arose” value ([1]; 960 Xs+ wells, added Xs 200 μM or 400 μM, same value for 480 Xs− wells) was 4.1±0.31%, the “Efficiency of establishing cell strains from initial colonies” value ([1]; colonies derived in Xs-containing medium (11/17), Xs-free 50% (3/6)) was 65% and the “More type I colonies than control cultures (average)” value [2] was 35%.
